Reference: patent publication EP4559919A1, “TRICYCLIC-CONTAINING MACROCYCLIC COMPOUND AND USE THEREOF” (Medshine Discovery Inc., priority 2022, dated 2024)
Read-outs that look alike come from different tables or passages of the source.

What was measured:
TRKB = molecular target: T1, TRKB (Homo sapiens, UniProt Q16620); assay: In vitro kinase inhibitory activity assay, Experimental method 2 (ADP-Glo); type: biochemical
T1 construct: purchased Carna
Method: (§1) The kinase inhibitory activity assays of the compounds against ALK, ALK^L1196M, ALK^G1202R, ALK^G1202R/L1196M, ROS1, and TRKB were conducted at Wuhan Heyan Biotechnology Co., Ltd. or Hefei PreceDo Biotechnology Co., Ltd.
(§2) Experimental materials: ALK (G1202R/L1196M) Active and TRKB were purchased from Carna; IGF1 was purchased from GenScript; PolyE4Y1 was purchased from SIGMA; ADP-Glo™ Reagent was purchased from Promega; ATP was purchased from Promega; Kinase Detection Reagent was purchased from Promega; microplate reader ( PerkinElmer).
TRKB reaction concentration 4.47 nM, ATP concentration 5.0 µM, substrate PolyE4Y1 concentration 0.2 µg/µL. TRKB kinase buffer was 40 mM Tris-HCl (pH 7.5) + 20 mM magnesium chloride + 2.5 mM manganese chloride + 0.1mg/mL BSA+ 50 µM DTT.
(§3) ALK(G1202R/L1196M) and TRKB detection method: 2 µL of kinase and 1 µL of compound were added to a 384-well plate; 2 µL of substrate/ATP mixture was added and incubated at room temperature in the dark for 60 minutes; 5 µL of ADP-Glo™ reagent was added and incubated at room temperature for 40 minutes; 10 µL of kinase detection reagent was added and incubated at room temperature for 30 minutes; the plate was read on a microplate reader, and luminescence was recorded (integration time set to 0.5 seconds).
(§4) The IC50 value could then be derived by performing a curve fit using a four-parameter logistic model (obtained using the "log(inhibitor) vs. response -- Variable slope" mode in GraphPad Prism).

ALK(G1202R/L1196M) = molecular target: T2, ALK(G1202R/L1196M) (Homo sapiens, UniProt Q9UM73, G1202R/L1196M); assay: as above; type: biochemical
T2 construct: purchased Carna
Method: as §1, §2
Reaction system: ALK(G1202R/L1196M) reaction concentration 8.63 nM, ATP concentration 5.0 µM, substrate IGF1 concentration 0.2 µg/µL. ALK(G1202R/L1196M) kinase buffer was 40 mM Tris-HCl (pH 7.5) + 20 mM magnesium chloride + 0.1 mg/mL BSA + 50 µM DTT.
as §3, §4

[1] = tested on: Ba/F3-EML4-ALK-G1202R/L1196M; assay: Anti-proliferative activity test on Ba/F3 cell lines (CellTiter-Glo); type: cell-based; details: Ba/F3 EML4-ALK-G1202R-L1196M; 72 hours; read-out: Half maximal inhibitory concentration IC50 for cells Ba/F3-EML4-ALK-G1202R/L1196 M
Method: (§5) • (1) Cell culture: The cell lines were cultured in an incubator at 37°C with 5% CO2. Regular passaging was performed, and cells in the logarithmic growth phase were selected for plating; • (2) Preparation of compound storage plate: The test compounds were prepared into a 10 mM solution with DMSO (Stock Con.); The compounds were then prepared into a 1 mM solution with DMSO (Work Con.); 1 µL of the stock solution was mixed with 9 µL of DMSO to prepare a 10 µL work solution. • (3) Preparation of 1000× compound storage plate (tube): The compounds were 3-fold serially diluted from […] to the lowest concentration, for a total of 8 concentrations; • (4) Preparation of 20× compound working solution: 98 µL of cell culture medium was added to a flat-bottomed 96-well transparent drug plate. From the 1000× compound storage plate, 2 µL of the compound was pipetted into the cell culture medium in the 96-well transparent drug plate. In the solvent control, 2 µL of DMSO was added. After the compound or DMSO was added, the mixture was homogenized using a pipette. • (5) Cells were stained with trypan blue and viable cells were counted to ensure a cell viability of 90% or more. The cell concentration was adjusted to an appropriate concentration; • (6) 95 µL of cell suspension (2000 cells/well) was added to each well of the compound assay cell plate, and cell-free culture medium containing 0.1% DMSO was added to the Min control wells; • (7) Administration in the compound assay cell plate: 5 µL of 20× compound working solution was added to the cell culture plate, 5 µL of DMSO-cell culture medium mixture was added to the Max control wells, and the final concentration of DMSO was 0.1%; • (8) The culture plate was then incubated in an incubator at 37°C with 5% CO2 for 72 hours; • (9) The following operations were conducted in accordance with the instructions of the Promega CellTiter-Glo Luminescent Cell Viability Assay Kit (Promega-G7573): CellTiter-Glo buffer was thawed and brought to room temperature; CellTiter-Glo substrate was brought to room temperature; CellTiter-Glo buffer was added to a bottle of CellTiter-Glo substrate to dissolve the substrate, thereby preparing CellTiter-Glo working solution; The mixture was slowly vortexed and shaken to be fully dissolved; The cell culture plate was removed and allowed to equilibrate to room temperature for 10 minutes; 50 µL (equal to half the volume of cell culture medium in each well) of CellTiter-Glo working solution was added to each well; The culture plate was shaken on an orbital shaker for 2 minutes to induce cell lysis; The plate was then left at room temperature for 10 minutes to stabilize the luminescent signal; The luminescent signal was detected using a SpectraMax Paradigm plate reader; Cell viability assay was conducted using CellTiter-Glo luminescence method.
(§6) Data analysis: The corresponding […] value (RLU) for each well was obtained from SpectraMax Paradigm readings. […] The inhibition rates corresponding to compounds at different concentrations were calculated in Excel, and the inhibition rate curves were plotted using GraphPad Prism software to calculate relevant parameters, including the maximum and minimum inhibition rates of the cells and the IC50 value.

Ba/F3-TEL-TRKB = assay: as above; type: cell-based; details: Mus musculus, BaF3; 72 hours; read-out: Half maximal inhibitory concentration IC50 for cells Ba/F3-TEL-TRKB
Method: as §5, §6

[2] = Cell permeability test, MDCKII-MDR1 monolayer; type: in vitro ADME; details: dog, MDCK-MDR1, pH 7.4
Method: The permeability and efflux ratio of the test compounds were evaluated using the MDCKII-MDR1 monolayer cell test system to determine the potential of the compounds to cross the blood-brain barrier and to be effluxed by the P-gp transporter.
MDCKII-MDR1 cells (from the Netherlands Cancer Institute) were seeded into a 96-well cell plate (from Corning) at a cell density of 2.5 × 10^5 cells/mL and cultured for 7 days to form a confluent monolayer.
The apparent permeability coefficient (Papp, cm/s) was calculated using the following formula: Papp = (dCr / dt) × Vr /(A × C0). Herein, dCr/dt is the cumulative concentration of the compound at the receiving end per unit time (µM/s); Vr is the volume of the solution at the receiving end (the volumes of the solution at the apical and basal sides are 0.075 mL and 0.250 mL, respectively); A is the relative surface area of the cell monolayer (0.0804 cm^2); C0 is the initial concentration (nM) of the test compound at the dosing end or the peak area ratio of the control compound. The efflux ratio was calculated using the following formula: ER = Papp(BA) / Papp(AB). The recovery rate was calculated using the following formula: % Recovery = 100 × [(Vr × Cr)+(Vd × Cd)] /(Vd × C0). Herein, C0 is the initial concentration of the test compound at the dosing end (nM) or the peak area ratio of the control compound; Vd is the volume at the dosing end (0.075 mL for the apical side and 0.250 mL for the basal side); Cd and Cr are the final concentrations (nM) of the test compound at the dosing end and the receiving end or the peak area ratios of the control compound, respectively.

[3] = Experimental method 2, ATP 5.0 µM, substrate PolyE4Y1, read-out: Kinase half maximal inhibitory concentration IC50 TRKB
[4] = Experimental method 2, ATP 5.0 µM, substrate IGF1, read-out: Kinase half maximal inhibitory concentration IC50 ALK^G1202R/L1196M

T1 sequence (Q16620 32-822): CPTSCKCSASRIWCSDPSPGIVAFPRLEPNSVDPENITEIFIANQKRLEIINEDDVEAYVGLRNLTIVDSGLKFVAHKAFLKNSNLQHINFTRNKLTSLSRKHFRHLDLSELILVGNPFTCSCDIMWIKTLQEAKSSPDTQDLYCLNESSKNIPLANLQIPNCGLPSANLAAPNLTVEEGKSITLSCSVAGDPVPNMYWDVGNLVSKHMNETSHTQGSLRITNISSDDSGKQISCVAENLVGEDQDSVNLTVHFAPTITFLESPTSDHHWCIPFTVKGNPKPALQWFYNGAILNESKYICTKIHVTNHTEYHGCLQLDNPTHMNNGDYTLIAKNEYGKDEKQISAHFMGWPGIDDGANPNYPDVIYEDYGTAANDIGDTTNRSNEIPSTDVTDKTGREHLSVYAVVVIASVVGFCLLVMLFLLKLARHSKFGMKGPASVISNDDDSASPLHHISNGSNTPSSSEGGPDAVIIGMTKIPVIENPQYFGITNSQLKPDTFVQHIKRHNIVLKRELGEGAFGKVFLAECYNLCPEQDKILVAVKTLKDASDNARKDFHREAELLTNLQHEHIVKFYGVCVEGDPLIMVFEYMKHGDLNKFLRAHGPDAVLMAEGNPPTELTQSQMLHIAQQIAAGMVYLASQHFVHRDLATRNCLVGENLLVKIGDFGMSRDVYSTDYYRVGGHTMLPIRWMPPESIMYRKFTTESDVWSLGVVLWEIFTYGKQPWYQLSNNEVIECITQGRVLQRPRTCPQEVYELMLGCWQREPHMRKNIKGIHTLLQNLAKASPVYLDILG
T2 sequence (Q9UM73 19-1620 L1196M/G1202R): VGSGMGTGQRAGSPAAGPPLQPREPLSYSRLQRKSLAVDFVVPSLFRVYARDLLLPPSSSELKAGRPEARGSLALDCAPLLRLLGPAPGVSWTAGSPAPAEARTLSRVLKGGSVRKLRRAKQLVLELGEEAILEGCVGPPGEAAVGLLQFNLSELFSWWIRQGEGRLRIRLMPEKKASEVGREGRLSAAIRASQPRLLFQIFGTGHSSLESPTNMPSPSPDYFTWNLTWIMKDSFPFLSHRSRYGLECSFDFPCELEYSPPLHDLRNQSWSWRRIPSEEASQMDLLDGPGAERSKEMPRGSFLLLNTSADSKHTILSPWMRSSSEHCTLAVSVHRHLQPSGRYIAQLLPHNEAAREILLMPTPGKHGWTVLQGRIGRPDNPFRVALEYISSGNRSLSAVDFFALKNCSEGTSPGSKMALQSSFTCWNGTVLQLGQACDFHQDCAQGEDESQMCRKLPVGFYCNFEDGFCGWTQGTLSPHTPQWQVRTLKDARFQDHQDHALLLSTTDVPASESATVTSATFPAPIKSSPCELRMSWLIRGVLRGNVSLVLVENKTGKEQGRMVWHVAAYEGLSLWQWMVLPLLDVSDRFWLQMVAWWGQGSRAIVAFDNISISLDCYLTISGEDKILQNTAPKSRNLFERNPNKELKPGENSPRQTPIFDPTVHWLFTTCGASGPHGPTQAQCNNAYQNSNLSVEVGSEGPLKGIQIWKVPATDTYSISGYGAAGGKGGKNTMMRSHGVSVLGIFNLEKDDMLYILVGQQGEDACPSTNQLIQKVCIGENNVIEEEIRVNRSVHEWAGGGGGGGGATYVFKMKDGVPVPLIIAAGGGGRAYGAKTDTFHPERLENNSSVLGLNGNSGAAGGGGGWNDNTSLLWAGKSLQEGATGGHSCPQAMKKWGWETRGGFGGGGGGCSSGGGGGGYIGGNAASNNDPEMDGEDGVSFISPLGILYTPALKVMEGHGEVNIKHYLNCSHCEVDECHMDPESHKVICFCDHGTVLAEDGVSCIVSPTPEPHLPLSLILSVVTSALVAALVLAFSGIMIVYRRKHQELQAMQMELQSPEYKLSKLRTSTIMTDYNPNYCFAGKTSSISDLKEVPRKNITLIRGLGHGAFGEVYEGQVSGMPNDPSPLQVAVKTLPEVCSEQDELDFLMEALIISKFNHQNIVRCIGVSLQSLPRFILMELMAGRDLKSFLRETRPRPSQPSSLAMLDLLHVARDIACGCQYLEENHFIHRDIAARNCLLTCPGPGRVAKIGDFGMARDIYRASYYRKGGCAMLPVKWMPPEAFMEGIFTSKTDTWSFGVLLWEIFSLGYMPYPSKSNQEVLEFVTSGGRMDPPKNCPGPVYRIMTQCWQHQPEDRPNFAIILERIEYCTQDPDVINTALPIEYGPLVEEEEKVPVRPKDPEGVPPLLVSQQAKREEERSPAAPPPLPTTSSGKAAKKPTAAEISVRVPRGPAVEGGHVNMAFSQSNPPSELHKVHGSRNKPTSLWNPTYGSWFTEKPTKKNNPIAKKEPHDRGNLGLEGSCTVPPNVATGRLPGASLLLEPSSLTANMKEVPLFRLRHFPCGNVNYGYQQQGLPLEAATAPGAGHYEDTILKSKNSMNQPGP

SMILES	IC50 (TRKB; [3])	IC50 (ALK(G1202R/L1196M); [4])	IC50 [1]	IC50 (Ba/F3-TEL-TRKB)	other results
CON=C1NCC2(CC2)COc2ccc(F)cc2CN2c3nc4c1cnn4cc3OC[C@H]2C(F)F [Compound 011]	3.4 nM	1.7 nM	–	–	–
Cc1nc2cc3c4nc2n1C(=O)NC(C)(C)COc1ccc(F)cc1CN4[C@H](C(F)F)CO3 [Compound 012]	–	–	7 nM	5.2 nM	IC50 (TRKB): 2.9 nM; IC50 (ALK(G1202R/L1196M)): 1.5 nM
CC1(C)COc2ncc(F)cc2CN2c3nc4c(cc3OC[C@H]2C(F)F)ncn4C(=O)N1 [Compound 013]	–	–	1.2 nM	0.3 nM	efflux ratio at 2.5 h, 2 µM [2]: 0.77; Papp A→B at 2.5 h, 2 µM ([2]; 2 µM, 150 minutes, pH 7.40): 11.8 ×10⁻⁶ cm/s; Papp B→A at 2.5 h, 2 µM ([2]; 2 µM, 150 minutes, pH 7.40): 9.02 ×10⁻⁶ cm/s
O=C1NC2(CC2)COc2ccc(F)cc2CN2c3nc4c(cc3OC[C@H]2C(F)F)ncn41 [Compound 014]	0.7 nM	0.4 nM	5.3 nM	0.2 nM	–
Cc1nn2cc3c4nc2c1C(=O)NC(C)(C)COc1ncc(F)cc1CN4[C@H](C(F)F)CO3 [Compound 015]	1.1 nM	0.6 nM	–	–	–
CC1(C)COc2ccc(F)cc2CN2c3nc4c(c(C5CC5)nn4cc3OC[C@H]2C(F)F)C(=O)N1 [Compound 017]	31.3 nM	15.3 nM	–	–	–
CC1(C)COc2ccc(F)cc2CN2c3nc4c(c(C#CC5CC5)nn4cc3OC[C@H]2C(F)F)C(=O)N1 [Compound 020]	10 nM	1.1 nM	–	–	–
O=C1NC2(CCC2)COc2ccc(F)cc2CN2c3nc4c1c(Br)nn4cc3OC[C@H]2C(F)F [Compound 021]	7 nM	4 nM	–	–	–
O=C1N[C@H]2C[C@H](C2)Oc2ccc(F)cc2CN2c3nc4c1c(Br)nn4cc3OC[C@H]2C(F)F [Compound 023]	1.5 nM	1.2 nM	10.8 nM	1.8 nM	–
